In US8420574B2, “Plant growth enhancement with combinations of PESA and herbicides” (Valent BioSciences Corporation, priority 2009, dated 2013):
Structures can show the parent of a compound that is named as a salt.

System: rice cv. Cheniere
Experiment: Pouch assay, PESA salt and herbicide added to the pouch solution; root and shoot length
Type: in vivo
Procedure: Alternatively, PESA salt and herbicides may be added separately to the sterile water in the growth pouch.
Seeds were placed in germination pouches consisting of germination paper hydrated with sterile water that was an insert in a gas-permeable 16×14 cm plastic pouch (CYG Pouch; Mega International, St. Paul, Minn.). In these examples, in pouch solution evaluation, PESA sodium salt or other active ingredients were added to the sterile water in the pouch. The pouches were arranged in a completely randomized block design in growth racks and placed in 19-liter polycarbonate food storage containers (Rubbermaid Commercial Products, Winchester, Va.). The sealed containers were held in an upright growth cabinet maintained at 25 C with a 12 hour light: 12 hour dark photoperiod. After 6 days, the containers were removed from the growth cabinet, and the lengths of the roots and shoot were measured.

Structure (SMILES): O=C(O)CCC(=O)NCCc1ccccc1 [PESA salt, N-(2-phenylethyl)succinamic acid]
- Shoot Length (0 ppm pendimethalin, treatment 30 ppm PESA salt, 10 ppm GA3 or both, untreated 3.9): 3.8 cm
- Root Length (0 ppm pendimethalin, treatment 30 ppm PESA salt, 10 ppm GA3 or both, untreated 9.7): 11.2 cm
- Shoot Length (10 ppm dithiopyr, treatment none (Control), 30 ppm PESA salt, 10 ppm GA3 or both, untreated 3.9): 2.8 cm
- Root Length (10 ppm dithiopyr, treatment none (Control), 30 ppm PESA salt, 10 ppm GA3 or both, untreated 9.5): 6.4 cm
- Shoot Length (30 ppm PESA salt, 0 ppm chlorsulfuron, untreated 4.8): 4.9 cm
- Root Length (30 ppm PESA salt, 0 ppm chlorsulfuron, untreated 11.6): 12.8 cm
- Shoot Length (30 ppm PESA salt, 0 ppm dithiopyr, untreated 4.0): 4.2 cm
- Root Length (30 ppm PESA salt, 0 ppm dithiopyr, untreated 9.5): 12.2 cm
- Shoot Length (30 ppm PESA salt, 0 ppm metolachlor, untreated 3.7): 3.7 cm
- Root Length (30 ppm PESA salt, 0 ppm metolachlor, untreated 9.3): 10.9 cm
- Shoot Length (30 ppm PESA salt, 0 ppm pendimethalin, untreated 3.4): 3.6 cm
- Root Length (30 ppm PESA salt, 0 ppm pendimethalin, untreated 8.5): 10.1 cm
- Shoot Length (30 ppm PESA salt, 0 ppm trifluralin, untreated 3.2): 3.7 cm
- Root Length (30 ppm PESA salt, 0 ppm trifluralin, untreated 9.2): 10.7 cm
- Shoot Length (30 ppm PESA salt, 1 ppm dithiopyr, untreated 4.0): 4.0 cm
- Root Length (30 ppm PESA salt, 1 ppm dithiopyr, untreated 9.5): 11.4 cm
- Shoot Length (30 ppm PESA salt, 1 ppm metolachlor, untreated 3.7): 3.9 cm
- Root Length (30 ppm PESA salt, 1 ppm metolachlor, untreated 9.3): 8.6 cm
- Shoot Length (30 ppm PESA salt, 1 ppm trifluralin, untreated 3.2): 3.6 cm
- Root Length (30 ppm PESA salt, 1 ppm trifluralin, untreated 9.2): 10.6 cm
- Shoot Length (30 ppm PESA salt, 10 ppm chlorsulfuron, untreated 4.8): 0.9 cm
- Root Length (30 ppm PESA salt, 10 ppm chlorsulfuron, untreated 11.6): 0.5 cm
- Shoot Length (30 ppm PESA salt, 10 ppm dithiopyr, untreated 4.0): 3.7 cm
- Root Length (30 ppm PESA salt, 10 ppm dithiopyr, untreated 9.5): 9.1 cm
- Shoot Length (30 ppm PESA salt, 10 ppm metolachlor, untreated 3.7): 0.9 cm
- Root Length (30 ppm PESA salt, 10 ppm metolachlor, untreated 9.3): 4.4 cm
- Shoot Length (30 ppm PESA salt, 10 ppm pendimethalin, untreated 3.4): 3.2 cm
- Root Length (30 ppm PESA salt, 10 ppm pendimethalin, untreated 8.5): 9.4 cm
- Shoot Length (30 ppm PESA salt, 10 ppm trifluralin, untreated 3.2): 2.9 cm
- Root Length (30 ppm PESA salt, 10 ppm trifluralin, untreated 9.2): 9.1 cm
- Shoot Length (30 ppm PESA salt, 100 ppm chlorsulfuron, untreated 4.8): 0.8 cm
- Root Length (30 ppm PESA salt, 100 ppm chlorsulfuron, untreated 11.6): 0.3 cm
- Shoot Length (30 ppm PESA salt, 100 ppm dithiopyr, untreated 4.0): 1.1 cm
- Root Length (30 ppm PESA salt, 100 ppm dithiopyr, untreated 9.5): 0.4 cm
- Shoot Length (30 ppm PESA salt, 100 ppm metolachlor, untreated 3.7): 0.6 cm
- Root Length (30 ppm PESA salt, 100 ppm metolachlor, untreated 9.3): 1.7 cm
- Shoot Length (30 ppm PESA salt, 100 ppm pendimethalin, untreated 3.4): 1.0 cm
- Root Length (30 ppm PESA salt, 100 ppm pendimethalin, untreated 8.5): 3.1 cm
- Shoot Length (30 ppm PESA salt, 100 ppm trifluralin, untreated 3.2): 2.4 cm
- Root Length (30 ppm PESA salt, 100 ppm trifluralin, untreated 9.2): 5.1 cm
- Shoot Length (30 ppm PESA salt, 500 ppm pendimethalin, untreated 3.4): 0.5 cm
- Root Length (30 ppm PESA salt, 500 ppm pendimethalin, untreated 8.5): 0.6 cm
- protection of roots from herbicide (30 ppm PESA with 10 ppm dithiopyr): protected the roots largely from the negative effects of dithiopyr
- protection of roots from herbicide (30 ppm PESA with 100 ppm trifluralin): largely protected the roots from the negative effects of trifluralin
- Shoot Length (50 ppm pendimethalin, treatment none (Control), 30 ppm PESA salt, 10 ppm GA3 or both, untreated 3.9): 1.1 cm
- Root Length (50 ppm pendimethalin, treatment none (Control), 30 ppm PESA salt, 10 ppm GA3 or both, untreated 9.7): 5.6 cm
- root length greater than with pendimethalin alone (PESA and pendimethalin, on average): 20%
- root length relative to pendimethalin alone (PESA salt added to pendimethalin (Table 4)): twice the length of those grown in pendimethalin alone
- effect on root and shoot length (PESA salt in the absence of trifluralin): significant increase in both root and shoot length
- protection of roots from herbicide (PESA salt with 10 ppm metolachlor): partially protected primary root length
- protection of root length from herbicide (PESA salt with chlorsulfuron, rice): had no activity in combination with chlorsulfuron
- effect on shoot length under herbicide (PESA salt with dithiopyr): did not significantly alter the negative effects of dithiopyr on shoot length
- effect on shoot growth under herbicide (PESA salt with pendimethalin): did not overcome the negative effects of pendimethalin on shoot growth
- effect on shoot length under herbicide (PESA salt with trifluralin): did not consistently overcome the negative effects of trifluralin on shoot length
- root length increased by (addition of 30 ppm PESA to 100 ppm pendimethalin): 25%
- Shoot Length (no dithiopyr (Control), treatment 30 ppm PESA salt, 10 ppm GA3 or both, untreated 3.9): 3.6 cm
- Root Length (no dithiopyr (Control), treatment 30 ppm PESA salt, 10 ppm GA3 or both, untreated 9.5): 10.7 cm
